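Grown in 96-well plates, cells were treated for 48 hours with each compound at five concentrations. Insufficient inhibition: endpoint recorded as highest concentration tested. Abbreviation: GI50, concentration required for 50% inhibition of growth.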 The source made the active and inactive calls. No stated cut-off is given here; in the data, active = GI50 up to about 1.1 µM and inactive = higher. Where a SMILES comes first, the peptide text is derived from it. The star is where a group is joined. Boc = CC(C)(C)OC(=O)*
Columns and labels:
Assay in all cases: inhibition of tumour cell growth, NCI panel, 48 h
HCT-116 = system: HCT-116
MDA-N = system: MDA-N
SF-268 = system: SF-268
NCI-H226 = system: NCI-H226
SF-295 = system: SF-295
RPMI-8226 = system: RPMI-8226
SW-620 = system: SW-620
LOX IMVI = system: LOX IMVI
CCRF-CEM = system: CCRF-CEM
T47D = system: T47D
ACHN = system: ACHN
UACC-257 = system: UACC-257
HCT-15 = system: HCT-15
UACC-62 = system: UACC-62
A549 = system: A549
NCI/ADR-RES = system: NCI/ADR-RES
SK-MEL-2 = system: SK-MEL-2
HOP-92 = system: HOP-92
HCC 2998 = system: HCC 2998

Compound	GI50 (HCT-116)	GI50 (MDA-N)	GI50 (SF-268)	GI50 (NCI-H226)	GI50 (SF-295)	GI50 (RPMI-8226)	GI50 (SW-620)	GI50 (LOX IMVI)	GI50 (CCRF-CEM)	GI50 (T47D)	GI50 (ACHN)	GI50 (UACC-257)	GI50 (HCT-15)	GI50 (UACC-62)	GI50 (A549)	GI50 (NCI/ADR-RES)	GI50 (SK-MEL-2)	GI50 (HOP-92)	GI50 (HCC 2998)
Cc1cccc(N2C(=O)C3c4[nH]c5ccccc5c4C4CCC(C(C)(C)C)CC4C3C2=O)c1 (stereo unspecified)	9.29 µM (inactive)	15.3 µM (inactive)	4.27 µM (inactive)	18.7 µM (inactive)	9.29 µM (inactive)	12.7 µM (inactive)	11.8 µM (inactive)	3.32 µM (inactive)	8.57 µM (inactive)	26.5 µM (inactive)	4.95 µM (inactive)	18.7 µM (inactive)	29.4 µM	19.5 µM (inactive)	10.6 µM (inactive)	15.7 µM (inactive)	18.2 µM (inactive)		
CN(CC(=O)O)c1ncc2c(n1)-c1ccccc1CC2	> 100 µM (inactive)	> 100 µM (inactive)	> 100 µM (inactive)	> 100 µM (inactive)	> 100 µM (inactive)	> 100 µM (inactive)	> 100 µM (inactive)	> 100 µM (inactive)	> 100 µM (inactive)		> 100 µM (inactive)	> 100 µM (inactive)	> 100 µM	> 100 µM (inactive)	> 100 µM (inactive)	> 100 µM (inactive)	> 100 µM (inactive)	> 100 µM (inactive)	
COc1ccc(C2=Nn3c(nnc(Cc4ccc(Cl)cc4)c3=O)SC2)cc1	28.1 µM (inactive)		> 100 µM (inactive)	94 µM (inactive)	34.3 µM (inactive)	23.1 µM (inactive)	47.4 µM (inactive)	34.9 µM (inactive)	38.3 µM (inactive)	64 µM (inactive)	64.7 µM (inactive)	46.9 µM (inactive)	29 µM	32.4 µM (inactive)	51.3 µM (inactive)	19.8 µM (inactive)	26.5 µM (inactive)	> 100 µM (inactive)	55.1 µM (inactive)
CCOC(=O)c1cn(-c2ccc(Cl)cc2)c(=O)n2c1nc1ccccc12	> 100 µM (inactive)			> 100 µM (inactive)	> 100 µM (inactive)	> 100 µM (inactive)	> 100 µM (inactive)	> 100 µM (inactive)	> 100 µM (inactive)	> 100 µM (inactive)	> 100 µM (inactive)	> 100 µM (inactive)	> 100 µM	> 100 µM (inactive)	> 100 µM (inactive)	> 100 µM (inactive)	> 100 µM (inactive)	> 100 µM (inactive)	> 100 µM (inactive)
CN1C(=O)c2c(c3c4ccccc4n(C4OC(CO)C(O)C(O)C4O)c3c3[nH]c4ccccc4c23)C1=O (stereo unspecified)	0.718 µM (active)	2.14 µM (inactive)	0.541 µM (active)	1.77 µM (inactive)	3.63 µM (inactive)	16.1 µM (inactive)	1.71 µM (inactive)	1.2 µM (inactive)	0.268 µM (active)		2.14 µM (inactive)	2.49 µM (inactive)	4.82 µM	1.46 µM (inactive)	11.8 µM (inactive)	12.5 µM (inactive)	2.48 µM (inactive)	1.08 µM (active)	2.07 µM (inactive)
CSCCCNC(=O)c1csc(-c2csc(CCNC(=O)CNC(=O)CNC(=O)OC(C)(C)C)n2)n1	> 100 µM (inactive)	> 100 µM (inactive)	> 100 µM (inactive)	> 100 µM (inactive)	> 100 µM (inactive)		> 100 µM (inactive)	> 100 µM (inactive)	> 100 µM (inactive)		> 100 µM (inactive)	> 100 µM (inactive)	> 100 µM	> 100 µM (inactive)	> 100 µM (inactive)	> 100 µM (inactive)	> 100 µM (inactive)	> 100 µM (inactive)	> 100 µM (inactive)
COc1cc(CC2CCc3nc(N)nc(N)c3C2)cc(OC)c1OC (stereo unspecified)	0.0457 µM (active)		0.174 µM (active)	> 24.3 µM (inactive)	0.21 µM (active)	5.83 µM (inactive)	0.914 µM (active)	0.0798 µM (active)		21.6 µM (inactive)	0.163 µM (active)	24.8 µM (inactive)	0.0925 µM	0.145 µM (active)	0.0927 µM (active)		> 38.1 µM (inactive)	26.5 µM (inactive)	0.621 µM (active)
CC(C)(C)OC(=O)NCC(=O)NCC(=O)NCC(=O)NCC(=O)O (Boc-GGGG-OH)	> 100 µM (inactive)		> 100 µM (inactive)		> 100 µM (inactive)	> 100 µM (inactive)	> 100 µM (inactive)	> 100 µM (inactive)	> 100 µM (inactive)	> 100 µM (inactive)	> 100 µM (inactive)	> 100 µM (inactive)	> 100 µM	> 100 µM (inactive)	> 100 µM (inactive)	> 100 µM (inactive)		> 100 µM (inactive)	> 100 µM (inactive)

— ChEMBL document CHEMBL1201862, “PubChem BioAssay data set” (2004)
